According to ChEMBL document CHEMBL1148759, “Isolation, characterization, and biological evaluation of syn and anti diastereomers of [(99m)Tc]technetium depreotide: a somatostatin receptor binding tumor imaging agent” (J Med Chem, 2007):
Where a SMILES comes first, the peptide text is derived from it. [ ]: non-standard residue; d: D form. The star is where a group is joined. X1 = NCCCC[C@H](NC(=O)[C@H](CS)NC(=O)[C@H](CCCCN)NC(=O)[C@@H](N)CNC(=O)C*)C(N)=O; NMeF = CN[C@@H](Cc1ccccc1)C(=O)O; hCys = N[C@@H](CCS)C(=O)O

Experiment: Displacement of [125I]somatostatin from SSTR in rat AR42J cells
Format: cell-based
Settings: ar-42j

CC(C)[C@@H]1NC(=O)[C@H](CCCCN)NC(=O)[C@@H](Cc2c[nH]c3ccccc23)NC(=O)[C@H](Cc2ccc(O)cc2)NC(=O)[C@H](Cc2ccccc2)N(C)C(=O)[C@H](CCSCC(=O)NC[C@H](N)C(=O)N[C@@H](CCCCN)C(=O)N[C@@H](CS)C(=O)N[C@@H](CCCCN)C(N)=O)NC1=O [DEPREOTIDE] (cyclo([hCys](X1)[NMeF]Y[dW]KV))
IC50: 7.4 nM
